Reference: patent publication US12391648B2, “Pyridyloxy thioester derivative and preparation method therefor, herbicidal composition, and application” (Qingdao Kingagroot Chemical Compound Co., Ltd., priority 2018, dated 2025)

Experiments:
Test in all cases: Post-emergence test experiment (Table 3, 1000 g/ha)
Format in all cases: in vivo
Settings in all cases: post-emergence spray, after 3 weeks, fresh weight inhibition
Galium spurium = test system: Galium spurium
Excerpt: (§1) The activity level standard of harmful plants destruction (i. e. growth inhibition rate) is as follows: • Level 5: the growth inhibition rate is greater than 85%; • Level 4: the growth inhibition rate is equal to or greater than 60% and less than 85%; • Level 3: the growth inhibition rate is equal to or greater than 40% and less than 60%; • Level 2: the growth inhibition rate is equal to or greater than 20% and less than 40%; • Level 1: the growth inhibition rate is equal to or greater than 5% and less than 20%; • Level 0: the growth inhibition rate is less than 5%;
(§2) The above described growth inhibition rate is fresh weight inhibition rate.
(§3) Post-emergence test experiment: Monocotyledonous and dicotyledonous weed seeds and main crop seeds (i. e. wheat, corn, rice, soybean, cotton, oilseed, millet and sorghum.) were put into a plastic pot loaded with soil. Then covered with 0.5-2 cm soil, the seeds were allowed to grow in good greenhouse environment. The test plants were treated at 2-3 leaf stage 2 weeks after sowing. The test compounds of the invention were dissolved with acetone respectively, then added with tween-80, and using 1.5 liters per hectare of an emulsible concentrate of methyl oleate as a synergist, and diluted by certain amount of water to certain concentration. The solution was sprayed to the plants with a sprayer. Then the plants were cultured for 3 weeks in the greenhouse, and the experiment result of weed controlling effect after 3 weeks was listed in tables 3-4.

Leptochloa chinensis = test system: Leptochloa chinensis
Excerpt: as §1, §2, §3

Setaria viridis = test system: Setaria viridis
Excerpt: as §1, §2, §3

Monochoria vaginalis = test system: Monochoria vaginalis
Excerpt: as §1, §2, §3

Digitaria sanguinalis = test system: Digitaria sanguinalis
Excerpt: as §1, §2, §3

Abutilon theophrasti = test system: Abutilon theophrasti
Excerpt: as §1, §2, §3

Compound	Activity level (growth inhibition rate) Galium spurium (Galium spurium)	Activity level (growth inhibition rate) Leptochloa chinensis (Leptochloa chinensis)	Activity level (growth inhibition rate) Setaria viridis (Setaria viridis)	Activity level (growth inhibition rate) Monochoria Vaginalis (Monochoria vaginalis)	Activity level (growth inhibition rate) Digitaria sanguinalis (Digitaria sanguinalis)	Activity level (growth inhibition rate) Abutilon theophrasti (Abutilon theophrasti)
CC(Oc1nc(F)c(Cl)c(N)c1Cl)C(=O)Sc1cccc(C(C)C)c1 (stereo not drawn) [Compound 113]	5 (Level 5: the growth inhibition rate is greater than 85%)	5 (Level 5: the growth inhibition rate is greater than 85%)	5 (Level 5: the growth inhibition rate is greater than 85%)	5 (Level 5: the growth inhibition rate is greater than 85%)	5 (Level 5: the growth inhibition rate is greater than 85%)	5 (Level 5: the growth inhibition rate is greater than 85%)
CCCCC(CC)CSC(=O)C(C)Oc1nc(C)c(C)c(N)c1C (stereo not drawn) [Compound 19]	5 (Level 5: the growth inhibition rate is greater than 85%)	5 (Level 5: the growth inhibition rate is greater than 85%)	5 (Level 5: the growth inhibition rate is greater than 85%)	5 (Level 5: the growth inhibition rate is greater than 85%)	5 (Level 5: the growth inhibition rate is greater than 85%)	5 (Level 5: the growth inhibition rate is greater than 85%)
CC(Oc1nc(F)c(Cl)c(N)c1Cl)C(=O)SC(F)(F)C(F)(F)F (stereo not drawn) [Compound 76]	5 (Level 5: the growth inhibition rate is greater than 85%)	5 (Level 5: the growth inhibition rate is greater than 85%)	5 (Level 5: the growth inhibition rate is greater than 85%)	5 (Level 5: the growth inhibition rate is greater than 85%)	5 (Level 5: the growth inhibition rate is greater than 85%)	5 (Level 5: the growth inhibition rate is greater than 85%)
COCC(Oc1nc(F)c(Cl)c(N)c1Cl)C(=O)SC (stereo not drawn) [Compound 29]	5 (Level 5: the growth inhibition rate is greater than 85%)	–	–	5 (Level 5: the growth inhibition rate is greater than 85%)	–	5 (Level 5: the growth inhibition rate is greater than 85%)
CSC(=O)C(Oc1nc(F)c(Cl)c(N)c1Cl)C(F)F (stereo not drawn) [Compound 39]	5 (Level 5: the growth inhibition rate is greater than 85%)	–	–	5 (Level 5: the growth inhibition rate is greater than 85%)	–	5 (Level 5: the growth inhibition rate is greater than 85%)
CSC(=O)C(Br)Oc1nc(F)c(Cl)c(N)c1Cl (stereo not drawn) [Compound 36]	5 (Level 5: the growth inhibition rate is greater than 85%)	–	–	5 (Level 5: the growth inhibition rate is greater than 85%)	–	5 (Level 5: the growth inhibition rate is greater than 85%)
CSC(=O)C(C=O)Oc1nc(F)c(Cl)c(N)c1Cl (stereo not drawn) [Compound 51]	5 (Level 5: the growth inhibition rate is greater than 85%)	–	–	5 (Level 5: the growth inhibition rate is greater than 85%)	–	5 (Level 5: the growth inhibition rate is greater than 85%)
CSC(=O)C(CO)Oc1nc(F)c(Cl)c(N)c1Cl (stereo not drawn) [Compound 48]	5 (Level 5: the growth inhibition rate is greater than 85%)	–	–	5 (Level 5: the growth inhibition rate is greater than 85%)	–	5 (Level 5: the growth inhibition rate is greater than 85%)
CSC(=O)C(Oc1nc(F)c(Cl)c(N)c1Cl)C(F)(F)F (stereo not drawn) [Compound 41]	5 (Level 5: the growth inhibition rate is greater than 85%)	–	–	5 (Level 5: the growth inhibition rate is greater than 85%)	–	5 (Level 5: the growth inhibition rate is greater than 85%)
CSC(=O)C(Oc1nc(F)c(Cl)c(N)c1Cl)c1cccnc1 (stereo not drawn) [Compound 63]	5 (Level 5: the growth inhibition rate is greater than 85%)	–	–	5 (Level 5: the growth inhibition rate is greater than 85%)	–	5 (Level 5: the growth inhibition rate is greater than 85%)
CSC(=O)C(Oc1nc(F)c(Cl)c(N)c1Cl)[N+](=O)[O-] (stereo not drawn) [Compound 49]	5 (Level 5: the growth inhibition rate is greater than 85%)	–	–	5 (Level 5: the growth inhibition rate is greater than 85%)	–	5 (Level 5: the growth inhibition rate is greater than 85%)
CSC(=O)C(Oc1nc(F)c(Cl)c(N)c1Cl)c1cccc(Cl)c1 (stereo not drawn) [Compound 61]	5 (Level 5: the growth inhibition rate is greater than 85%)	–	–	5 (Level 5: the growth inhibition rate is greater than 85%)	–	5 (Level 5: the growth inhibition rate is greater than 85%)
CSC(=O)C(CCCl)Oc1nc(F)c(Cl)c(N)c1Cl (stereo not drawn) [Compound 40]	5 (Level 5: the growth inhibition rate is greater than 85%)	–	–	5 (Level 5: the growth inhibition rate is greater than 85%)	–	5 (Level 5: the growth inhibition rate is greater than 85%)
COC(C)C(Oc1nc(F)c(Cl)c(N)c1Cl)C(=O)SC (stereo not drawn) [Compound 31]	5 (Level 5: the growth inhibition rate is greater than 85%)	–	–	5 (Level 5: the growth inhibition rate is greater than 85%)	–	5 (Level 5: the growth inhibition rate is greater than 85%)
CSC(=O)C(Oc1nc(F)c(Cl)c(N)c1Cl)c1cn(C)nc1C (stereo not drawn) [Compound 57]	5 (Level 5: the growth inhibition rate is greater than 85%)	–	–	5 (Level 5: the growth inhibition rate is greater than 85%)	–	5 (Level 5: the growth inhibition rate is greater than 85%)
CSC(=O)C(Oc1nc(F)c(Cl)c(N)c1Cl)c1cnn(C(F)F)c1 (stereo not drawn) [Compound 58]	5 (Level 5: the growth inhibition rate is greater than 85%)	–	–	5 (Level 5: the growth inhibition rate is greater than 85%)	–	5 (Level 5: the growth inhibition rate is greater than 85%)
CCC(Oc1nc(F)c(Cl)c(N)c1Cl)C(=O)SC (stereo not drawn) [Compound 25]	5 (Level 5: the growth inhibition rate is greater than 85%)	–	–	5 (Level 5: the growth inhibition rate is greater than 85%)	–	5 (Level 5: the growth inhibition rate is greater than 85%)
CSC(=O)C(Oc1nc(F)c(Cl)c(N)c1Cl)c1ccco1 (stereo not drawn) [Compound 54]	5 (Level 5: the growth inhibition rate is greater than 85%)	–	–	5 (Level 5: the growth inhibition rate is greater than 85%)	–	5 (Level 5: the growth inhibition rate is greater than 85%)
CSC(=O)C(CCl)Oc1nc(F)c(Cl)c(N)c1Cl (stereo not drawn) [Compound 37]	5 (Level 5: the growth inhibition rate is greater than 85%)	–	–	5 (Level 5: the growth inhibition rate is greater than 85%)	–	5 (Level 5: the growth inhibition rate is greater than 85%)
CSC(=O)C(CN(C)C)Oc1nc(F)c(Cl)c(N)c1Cl (stereo not drawn) [Compound 46]	5 (Level 5: the growth inhibition rate is greater than 85%)	–	–	5 (Level 5: the growth inhibition rate is greater than 85%)	–	5 (Level 5: the growth inhibition rate is greater than 85%)
CCSC(=O)C(Oc1nc(F)c(Cl)c(N)c1Cl)c1ccc(C(F)(F)F)cc1 (stereo not drawn) [Compound 60]	5 (Level 5: the growth inhibition rate is greater than 85%)	–	–	5 (Level 5: the growth inhibition rate is greater than 85%)	–	5 (Level 5: the growth inhibition rate is greater than 85%)
